# Assay results reported in PubChem BioAssay (NCI).
#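 All cell lines were grown in 96-well plates and treated with compound for 48 hours. At the TGI there is no net growth.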
# How the values were obtained:
# Assay in all cases: NCI anticancer screen, dose series, 48 h
# T-47D breast = tested on: T-47D breast
# A498 renal = tested on: A498 renal
# ACHN renal = tested on: ACHN renal
# RPMI-8226 leukemia = tested on: RPMI-8226 leukemia
# SK-MEL-5 melanoma = tested on: SK-MEL-5 melanoma
# CAKI-1 renal = tested on: CAKI-1 renal
# UO-31 renal = tested on: UO-31 renal
# RXF 393 renal = tested on: RXF 393 renal
# M14 melanoma = tested on: M14 melanoma
# SF-268 CNS = tested on: SF-268 CNS
# NCI-H522 lung = tested on: NCI-H522 lung
# K-562 leukemia = tested on: K-562 leukemia
# NCI/ADR-RES ovarian = tested on: NCI/ADR-RES ovarian
# SNB-75 CNS = tested on: SNB-75 CNS
# MCF7 breast = tested on: MCF7 breast
# U251 CNS = tested on: U251 CNS
# TK-10 renal = tested on: TK-10 renal
# NCI-H460 lung = tested on: NCI-H460 lung
# OVCAR-5 ovarian = tested on: OVCAR-5 ovarian
# MDA-MB-231 breast = tested on: MDA-MB-231 breast
# SK-MEL-2 melanoma = tested on: SK-MEL-2 melanoma
# OVCAR-3 ovarian = tested on: OVCAR-3 ovarian
# UACC-257 melanoma = tested on: UACC-257 melanoma
# EKVX NSCLC = tested on: EKVX NSCLC
# MOLT-4 leukemia = tested on: MOLT-4 leukemia
# IGROV1 ovarian = tested on: IGROV1 ovarian
# BT-549 breast = tested on: BT-549 breast
# HOP-92 NSCLC = tested on: HOP-92 NSCLC
# COLO 205 colon = tested on: COLO 205 colon
# 786-0 renal = tested on: 786-0 renal
# HOP-62 NSCLC = tested on: HOP-62 NSCLC
# CCRF-CEM leukemia = tested on: CCRF-CEM leukemia
# LOX IMVI melanoma = tested on: LOX IMVI melanoma
# OVCAR-4 ovarian = tested on: OVCAR-4 ovarian
# OVCAR-8 ovarian = tested on: OVCAR-8 ovarian
# PC-3 prostate = tested on: PC-3 prostate
# SW-620 colon = tested on: SW-620 colon
# MALME-3M melanoma = tested on: MALME-3M melanoma
# SF-295 CNS = tested on: SF-295 CNS
# NCI-H226 lung = tested on: NCI-H226 lung
# KM12 colon = tested on: KM12 colon
# HT29 colon = tested on: HT29 colon
# A549 NSCLC = tested on: A549 NSCLC
# HCT-15 colon = tested on: HCT-15 colon
# SK-OV-3 ovarian = tested on: SK-OV-3 ovarian
# UACC-62 melanoma = tested on: UACC-62 melanoma
# NCI-H23 lung = tested on: NCI-H23 lung
# MDA-N = tested on: MDA-N
# SF-539 CNS = tested on: SF-539 CNS
# SNB-19 CNS = tested on: SNB-19 CNS
# HCT-116 colon = tested on: HCT-116 colon
# MDA-MB-435 = tested on: MDA-MB-435
# SR leukemia = tested on: SR leukemia
# HS 578T breast = tested on: HS 578T breast
# DU-145 prostate = tested on: DU-145 prostate
# SK-MEL-28 melanoma = tested on: SK-MEL-28 melanoma
# SN12C renal = tested on: SN12C renal
# HCC-2998 colon = tested on: HCC-2998 colon
smiles,measurement,setting,value
CCOC(=O)c1nc2ccc(C(F)(F)F)cc2nc1NCc1ccc(OC)cc1,TGI,T-47D breast,> 100 µM
same,TGI,A498 renal,> 100 µM
same,TGI,ACHN renal,> 100 µM
same,TGI,RPMI-8226 leukemia,> 100 µM
same,TGI,SK-MEL-5 melanoma,> 100 µM
same,TGI,CAKI-1 renal,> 100 µM
same,TGI,UO-31 renal,> 100 µM
same,TGI,RXF 393 renal,> 100 µM
same,TGI,M14 melanoma,> 100 µM
same,TGI,SF-268 CNS,> 100 µM
same,TGI,NCI-H522 lung,> 100 µM
same,TGI,K-562 leukemia,> 100 µM
same,TGI,NCI/ADR-RES ovarian,> 100 µM
same,TGI,SNB-75 CNS,> 100 µM
same,TGI,MCF7 breast,> 100 µM
same,TGI,U251 CNS,> 100 µM
same,TGI,TK-10 renal,> 100 µM
same,TGI,NCI-H460 lung,> 100 µM
same,TGI,OVCAR-5 ovarian,> 100 µM
same,TGI,MDA-MB-231 breast,> 100 µM
same,TGI,SK-MEL-2 melanoma,> 100 µM
same,TGI,OVCAR-3 ovarian,> 100 µM
same,TGI,UACC-257 melanoma,> 100 µM
same,TGI,EKVX NSCLC,> 100 µM
same,TGI,MOLT-4 leukemia,> 100 µM
same,TGI,IGROV1 ovarian,> 100 µM
same,TGI,BT-549 breast,> 100 µM
same,TGI,HOP-92 NSCLC,> 100 µM
same,TGI,COLO 205 colon,> 100 µM
same,TGI,786-0 renal,> 100 µM
same,TGI,HOP-62 NSCLC,> 100 µM
same,TGI,CCRF-CEM leukemia,> 100 µM
same,TGI,LOX IMVI melanoma,> 100 µM
same,TGI,OVCAR-4 ovarian,> 100 µM
same,TGI,OVCAR-8 ovarian,> 100 µM
same,TGI,PC-3 prostate,> 100 µM
same,TGI,SW-620 colon,> 100 µM
same,TGI,MALME-3M melanoma,> 100 µM
same,TGI,SF-295 CNS,> 100 µM
same,TGI,NCI-H226 lung,> 100 µM
same,TGI,KM12 colon,> 100 µM
same,TGI,HT29 colon,> 100 µM
same,TGI,A549 NSCLC,> 100 µM
same,TGI,HCT-15 colon,> 100 µM
same,TGI,SK-OV-3 ovarian,> 100 µM
same,TGI,UACC-62 melanoma,> 100 µM
same,TGI,NCI-H23 lung,> 100 µM
same,TGI,MDA-N,> 100 µM
same,TGI,SF-539 CNS,> 100 µM
same,TGI,SNB-19 CNS,> 100 µM
same,TGI,HCT-116 colon,> 100 µM
same,TGI,MDA-MB-435,> 100 µM
same,TGI,SR leukemia,> 100 µM
same,TGI,HS 578T breast,> 100 µM
C#C[C@]1(O)CC[C@H]2[C@@H]3CCC4=C/C(=N/OCCN(C)C)CC[C@]4(C)[C@H]3CC[C@@]21C,TGI,T-47D breast,> 100 µM
same,TGI,A498 renal,> 100 µM
same,TGI,ACHN renal,> 100 µM
same,TGI,RPMI-8226 leukemia,> 100 µM
same,TGI,SK-MEL-5 melanoma,78.3 µM
same,TGI,CAKI-1 renal,> 100 µM
same,TGI,UO-31 renal,> 100 µM
same,TGI,M14 melanoma,35.2 µM
same,TGI,SF-268 CNS,> 100 µM
same,TGI,NCI-H522 lung,62.6 µM
same,TGI,K-562 leukemia,> 100 µM
same,TGI,NCI/ADR-RES ovarian,> 100 µM
same,TGI,SNB-75 CNS,> 100 µM
same,TGI,MCF7 breast,> 100 µM
same,TGI,U251 CNS,> 100 µM
same,TGI,TK-10 renal,> 100 µM
same,TGI,NCI-H460 lung,> 100 µM
same,TGI,OVCAR-5 ovarian,> 100 µM
same,TGI,MDA-MB-231 breast,> 100 µM
same,TGI,SK-MEL-2 melanoma,> 100 µM
same,TGI,OVCAR-3 ovarian,65.2 µM
same,TGI,DU-145 prostate,> 100 µM
same,TGI,UACC-257 melanoma,> 100 µM
same,TGI,EKVX NSCLC,> 100 µM
same,TGI,MOLT-4 leukemia,> 100 µM
same,TGI,IGROV1 ovarian,> 100 µM
same,TGI,BT-549 breast,> 100 µM
same,TGI,HOP-92 NSCLC,> 100 µM
same,TGI,COLO 205 colon,> 100 µM
same,TGI,786-0 renal,> 100 µM
same,TGI,HOP-62 NSCLC,> 100 µM
same,TGI,CCRF-CEM leukemia,83.1 µM
same,TGI,LOX IMVI melanoma,> 100 µM
same,TGI,OVCAR-4 ovarian,> 100 µM
same,TGI,OVCAR-8 ovarian,> 100 µM
same,TGI,SK-MEL-28 melanoma,> 100 µM
same,TGI,PC-3 prostate,> 100 µM
same,TGI,SW-620 colon,> 100 µM
same,TGI,MALME-3M melanoma,60.6 µM
same,TGI,SF-295 CNS,32.4 µM
same,TGI,NCI-H226 lung,85.8 µM
same,TGI,KM12 colon,> 100 µM
same,TGI,HT29 colon,> 100 µM
same,TGI,A549 NSCLC,> 100 µM
same,TGI,HCT-15 colon,> 100 µM
same,TGI,SK-OV-3 ovarian,> 100 µM
same,TGI,UACC-62 melanoma,> 100 µM
same,TGI,SN12C renal,> 100 µM
same,TGI,HCC-2998 colon,> 100 µM
same,TGI,NCI-H23 lung,> 100 µM
same,TGI,MDA-N,35.1 µM
same,TGI,SNB-19 CNS,> 100 µM
same,TGI,HCT-116 colon,> 100 µM
same,TGI,MDA-MB-435,32.2 µM
same,TGI,SR leukemia,67.5 µM
same,TGI,HS 578T breast,> 100 µM
